Measurements from patent publication US20040086942A1, “Ige receptor antagonists” (priority 2003, published 2004).
Entries after “also recorded” stand apart in the source; their conditions may differ. Read-outs that look alike come from different tables or passages of the source. Where a SMILES comes first, the peptide text is derived from it. Bridges are numbered along the chain shown (N, C = ends). Roman numbers before positions name the chains, in order. Where no end group is shown, it is not given here.

How the values were obtained:
[1] = target: T1, alpha subunit of the human FcεRI receptor (Homo sapiens, UniProt P12319); test: cell-based 125I-IgE binding inhibition assay on CHO FcεRI+ cells
T1 construct: expressed in transfected cells; host or cells: Chinese hamster ovary (CHO FcεRI+) cells
T1 sequence (P12319 26-257): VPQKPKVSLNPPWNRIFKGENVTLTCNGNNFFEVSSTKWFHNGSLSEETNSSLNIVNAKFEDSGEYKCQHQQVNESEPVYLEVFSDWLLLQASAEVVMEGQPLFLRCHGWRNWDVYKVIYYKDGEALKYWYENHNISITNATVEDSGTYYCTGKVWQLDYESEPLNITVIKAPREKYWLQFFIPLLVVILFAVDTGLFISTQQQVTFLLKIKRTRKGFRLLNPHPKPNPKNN
How it was run: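 Peptides, serially diluted 1:3 from 50-500 uM, preincubated 1 h at room temperature on CHO cells expressing human FcεRI alpha, then 1.5 nM 125I-IgE added for 45-60 min at 4 °C. Buffer F12/DMEM, 1% BSA, 0.05% NaN3, pH 7.2. Bound counts by gamma counting; IC50 from 4-parameter fits.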

FcεRIα = target: T2, FcεRIα (Homo sapiens, UniProt P12319); test: surface plasmon resonance biosensor direct-binding assay; details: for EC50: midpoint of 4-parameter fit to peptide saturation curve, immobilized receptor, read-out: Binding affinity: EC50 (uM) ± s.d.
T2 construct: human FcεRI(aa 1-176) was expressed using a baculovirus secretion expression system; host or cells: Hi-5 insect cells infected with baculovirus (virus produced in Sf9; transfer vector pAcGP67)
T2 sequence (P12319 26-201): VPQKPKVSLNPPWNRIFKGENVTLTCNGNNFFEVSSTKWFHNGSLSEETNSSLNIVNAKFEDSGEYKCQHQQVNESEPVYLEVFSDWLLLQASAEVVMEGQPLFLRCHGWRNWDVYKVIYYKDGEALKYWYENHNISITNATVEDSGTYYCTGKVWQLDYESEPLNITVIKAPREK
Procedure: Several peptides were also tested in a direct-binding assay using a surface plasmon resonance biosensor (Lofas & Johnsson, J. Chem. Soc. Commun. 21, 1526-1528 (1990)). FcεRIα, produced in baculovirus infected insect cells, was immobilized by the surface thiol method (BIAcore Methods Manual Supplement 5a, BIAcore, Inc., Piscataway, N.J.). Briefly, receptor was reacted with 2-(2pyridinyldithio)ethaneamine hydrochloride (PDEA; Natake & Swaisgood, J. Biochem. 74, 77-86 (1973)), desalted into 10 mM sodium acetate (pH 4.8) and stored in aliquots at −80″C. Thawed PDEA-receptor was injected over carboxymethyl-dextran (B1 or CM5, BIAcore, Inc.) biosensor chips preactivated with N-ethyl-N′-(3-dimethylaminopropyl)-carbodiimide hydrochloride (EDC) and N-hydroxysuccinimide (NHS), cystamine, and DTT. Following coupling, reactive groups on the chip were quenched with […] and ethanolarine. Serial dilutions of peptide in running buffer (phosphate-buffered saline containing 0.05% Tween-20, 0.01% sodium azide) were injected over the immobilized receptor, and the net amount of peptide bound at steady-state was measured as the net change in response (RU) at a point just prior to termination of peptide injection, compared to a running-buffer baseline. Binding affinities (Table 10) are reported as the midpoint (EC50) of a 4-parameter fit to the peptide saturation curve.

[2] = 2D NMR structural score versus reference peptide; type: physicochemical; parameters: key to Structure Score: +++, peptide structurally similar to reference; +, structurally similar to reference but significantly less stable; +/−, peptide has some elements of stable structure, but the conformation differs from the reference structure; −, peptide is predominantly unstructured; *peptide IGE037 (SEQ ID NO:128) was initially unstructured (monomeric form), but became structured after spontaneous dimer formation; details: reference IGE134
How it was run: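 Backbone ¹H resonances assigned by 2D NMR and ³JHN-Hα coupling constants measured against a reference peptide. Structure scored similar when chemical shifts, coupling constants and NOEs are consistent with the reference structure.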

RBL-48 cells = target: T3, RBL-48 cells (Homo sapiens, UniProt P12319); test: histamine release assay: induction of histamine release by peptide; details: peptide 0.5 mM on RBL-48 cells
T3 sequence (P12319 26-257): T1 sequence (P12319 26-257)
Procedure: Peptides were assayed in a histamine release assay (Lowe et al., (1995) J. Immunol. Methods, 184:113-122) to determine: (1) if the peptides could trigger histamine release and (2) if the peptides could prevent histamine release in the presence of ragweed and ragweed specific IgE. Rat basophil cell line RBL-48, which expresses the human FcεRI alpha subunit was cultured overnight in Falcon 96 flat well microtiter dishes. The cells were washed three times with growth media and then incubated in Iscove's MEM medium containing 10% fetal bovine serum and 3 USP units per milliliter of heparin (histamine assay buffer).

[3] = disulfide reshuffling of monomer peptide to homodimer in solution; type: physicochemical; details: in water or buffer at neutral pH
Description: This change occurs slowly, over a 3-12 day period following the solubilization of the peptide in water or buffer at neutral pH. […] Additional support for the occurrence of a change came from NMR data detecting a change in the one-dimensional NMR spectrum. Also HPLC reverse phase data indicated a change in retention time that correlated with the activity and the conversion of a monomer to a dimer. Final confirmation of the formation of an active dimer followed the syntheses of both parallel (IGE088, SEQ ID NO:128, 128) and anti-parallel (IGE089, SEQ ID NOS:128, 157) […] disulfide-linked dimer peptides. Both peptide forms were assayed for activity in inhibiting I^125-IgE binding to cell surface expressed FcεRI.

FcεRI = target: T4, FcεRI (Homo sapiens, UniProt P12319); test: competitive phage ELISA on baculovirus-derived FcεRI; type: binding; details: compared with the parent
T4 construct: human FcεRI(aa 1-176) was expressed using a baculovirus secretion expression system; host or cells: Hi-5 insect cells infected with baculovirus (virus produced in Sf9; transfer vector pAcGP67)
T4 sequence (P12319 26-201): T2 sequence (P12319 26-201)
Description: The extracellular domain of the alpha subunit of the human FcεRI(aa 1-176) was expressed using a baculovirus secretion expression system (Pharminten). cDNA encoding this domain was obtained through PCR of a plasmid containing a full length clone. The DNA fragment was ligated into baculovirus tranfer vector pAcGP67 and along with BaculoGold linearized baculovirus DNA was transfected into Sf9 cells Spodoptera frugiperda insect cells for baculovirus production (Pharmingen). Soluble FcεRI was affinity purified from the growth media of baculovirus infected Hi-5 insect cells (Expression Systems).
Phage ELISA assays were carried out as described (Lowman, 1998, supra), using Nunc Maxisorp™ plates coated with a 2 μg/mL solution of baculovirus-derived FcεRI. Peptide-phage were pre-incubated for 5-10 min with serial dilutions of receptor, then added to the receptor-coated plate. After incubation for 1 h at room temperature, the plates were washed and an anti-phage HRP-conjugated antibody (Pharmacia) was added. After further incubation for 20 min, plates were again washed and developed using the substrate OPD (Sigma). Optical density at 492 nm was read and plotted as a function of FcεRI concentration to determine an IC50 of inhibition by each peptide-phage variant.
A phage-based alanine scanning approach was used to map the FcεRI binding determinants of IGE134 (SEQ ID NOS:155, 171), as described above for IGE120 (SEQ ID NO:131, 159). […] Additionally, combinations of Ala mutations, deletions, and other substitutions were tested.

[4] = solubility in assay/binding buffer; type: physicochemical; details: assay buffer of the IgE binding inhibition assay
[5] = IgE-inhibition activity of synthetic peptides, read-out: Inhibition activity: C+hd 50 +l (uM) ± s.d.

CC(C)C[C@H](NC(=O)[C@H](C)N)C(=O)N[C@H]1CSSC[C@@H](C(=O)N[C@@H](Cc2ccc(O)cc2)C(=O)N[C@H](C(N)=O)C(C)C)NC(=O)[C@H](C(C)C)NC(=O)[C@H](C)NC(=O)[C@@H]2CCCN2C(=O)[C@@H](NC(=O)[C@H](CC(C)C)NC(=O)[C@H](C)N)CSSC[C@@H](C(=O)N[C@@H](Cc2ccc(O)cc2)C(=O)N[C@H](C(N)=O)C(C)C)NC(=O)[C@H](C(C)C)NC(=O)[C@H](C)NC(=O)[C@@H]2CCCN2C1=O [IGE089] (I: H-ALCPAVCYV-NH2 / II: H-ALCPAVCYV-NH2; disulfide I:3-II:7, I:7-II:3)
inhibiting 125I-IgE binding to cell surface expressed FcεRI (in words) [1]: Significant inhibitory activity
IC50 [1, 5]: 64 µM
EC50 (FcεRIα): 64 µM
Structure Score [2]: +++

PRCTEGPWGWVCM (disulfide 3-12 (inferred); not fully specified (C-terminus))
levels of histamine released (RBL-48 cells): equivalent to that of the negative control

CC(C)[C@H](N)C(=O)N[C@@H](CCC(N)=O)C(=O)N[C@H]1CSSC[C@@H](C(=O)N[C@@H](Cc2ccc(O)cc2)C(=O)N[C@H](C(N)=O)C(C)C)NC(=O)[C@H](Cc2ccccc2)NC(=O)[C@H](Cc2c[nH]cn2)NC(=O)[C@@H]2CCCN2C1=O [IGE129, VQCPHFCYV-nh2] (H-VQCPHFCYV-NH2; disulfide 3-7)
EC50 (FcεRIα): > 90 µM

CC(C)C[C@H](NC(=O)[C@H](C)N)C(=O)N[C@H]1CSSC[C@@H](C(=O)N[C@@H](Cc2ccc(O)cc2)C(=O)N[C@H](C(N)=O)C(C)C)NC(=O)[C@H](C(C)C)NC(=O)[C@H](C)NC(=O)[C@@H]2CCCN2C1=O [IGE037, ALCPAVCYV-nh2] (H-ALCPAVCYV-NH2; disulfide 3-7; N-terminus assumed)
period of conversion of monomer to disulfide linked homodimer [3]: 3 to 12 days
IC50 ([1]; IGE037: initially, read-out: IC50): ~300 µM
Structure Score [2]: +++*

CC(C)C[C@@H]1NC(=O)[C@H](CCC(=O)O)NC(=O)[C@H](Cc2ccc(O)cc2)NC(=O)[C@@H]2CSSC[C@H](NC(=O)[C@H](CC(C)C)NC(=O)[C@H](CCC(=O)O)NC(=O)[C@H](Cc3ccc(O)cc3)NC(=O)[C@H](CC(=O)O)NC1=O)C(=O)N1CCC[C@H]1C(=O)N[C@@H](CC(=O)O)C(=O)N[C@@H](C(C)C)C(=O)N[C@H](C(=O)N[C@@H](Cc1ccc(O)cc1)C(=O)N[C@H](C(N)=O)C(C)C)CSSC[C@H](NC(=O)[C@H](CCC(N)=O)NC(=O)[C@@H](N)C(C)C)C(=O)N1CCC[C@H]1C(=O)N[C@@H](Cc1c[nH]cn1)C(=O)N[C@@H](Cc1ccccc1)C(=O)N2 [IGE134] (H-VQCPHFCYELDYELCPDVCYV-NH2; disulfide 3-19, 7-15; N-terminus assumed)
relative binding affinity (in words) (FcεRI): improved affinity over IGE122
IC50 ([1]; average IC50, inhibition assay (Table 9)): 0.032 µM
Kd (FcεRIα): 0.032 µM
Structure Score [2]: +++

CSCC[C@H](NC(=O)[C@@H]1CSSC[C@H](NC(=O)[C@@H](NC(=O)[C@H](C)NC(=O)[C@H](CCC(=O)O)NC(=O)[C@H](C)N)[C@@H](C)O)C(=O)N[C@@H]([C@@H](C)O)C(=O)N[C@@H](CCC(=O)O)C(=O)NCC(=O)N2CCC[C@H]2C(=O)N[C@@H](Cc2c[nH]c3ccccc23)C(=O)NCC(=O)N[C@@H](Cc2c[nH]c3ccccc23)C(=O)N[C@@H](C(C)C)C(=O)N1)C(=O)N[C@@H](C)C(=O)N[C@@H](C)C(=O)N[C@@H](CC(=O)O)C(=O)O [AEATCTEGPWGWVCMAAD] (H-AEATCTEGPWGWVCMAAD-OH; disulfide 5-14)
solubility in the assay/binding buffer [4]: not soluble; also recorded: insoluble

CC(C)C[C@H](NC(=O)[C@H](C)N)C(=O)N[C@H]1CSSC[C@H](NC(=O)[C@H](CC(C)C)NC(=O)[C@H](C)N)C(=O)N2CCC[C@H]2C(=O)N[C@@H](C)C(=O)N[C@@H](C(C)C)C(=O)N[C@H](C(=O)N[C@@H](Cc2ccc(O)cc2)C(=O)N[C@H](C(N)=O)C(C)C)CSSC[C@@H](C(=O)N[C@@H](Cc2ccc(O)cc2)C(=O)N[C@H](C(N)=O)C(C)C)NC(=O)[C@H](C(C)C)NC(=O)[C@H](C)NC(=O)[C@@H]2CCCN2C1=O [IGE088, ALCPAVCYV-nh2] (I: H-ALCPAVCYV-NH2 / II: H-ALCPAVCYV-NH2; disulfide I:3-II:3, I:7-II:7; N-terminus assumed)
IC50 [1, 5]: > 450 µM
EC50 (FcεRIα): > 450 µM
Structure Score [2]: +/−
